Assay results published in patent publication US10533207B2, “Bioactivity testing structure for single cell tracking using gelling agents” (QuantaMatrix Inc., priority 2014, dated 2020).
In brackets after ≈: the same amount, converted by molar mass.

Experiments:
Type in all cases: cell-based, Mycobacterium tuberculosis
M. tuberculosis H37Rv = test: DST of MTB using the DAC system (MIC from time-lapse images); conditions: for MIC: Mycobacterium tuberculosis, 120 h, images over 5 days; for susceptibility of the strain (in words): from the MIC data
MDR-TB clinical strain = test: as above; conditions: for susceptibility determined from the MIC data and the critical concentrations: DAC system, MDR strain; for MIC: Mycobacterium tuberculosis, 120 h
XDR-TB clinical strain = test: as above; conditions: for susceptibility determined from the MIC data and the critical concentrations: DAC system, XDR strain; for MIC: Mycobacterium tuberculosis, 120 h
standard strain H37Rv = test: Inoculum effect test, DST on the DAC system
clinical strain 1088 = test: Inoculum effect on clinical strains on the DAC system
Procedure: (§1) Mycobacterium tuberculosis identified by ZN staining and grown from an L-J slope or MGIT tube and was subjected to DST. For the preparation of inoculation from the LJ culture, colonies up to 14 days were extracted from the grown culture. The colonies were shaken with glass beads to crush large lumps. To obtain a high density (˜5×10^9 CFU/ml), the suspension was centrifuged at 3000 g for 10 min and pellets were resuspended in sterile PBS. Subsequently, the suspension was added to liquid agarose, inoculated in a bacteria-agarose mixture within the range of 10^1 to 5×10^8 CFU/ml, and loaded in the main channel After solidification, 7H9 broth containing each antibiotic was applied to the chamber. All bacterial cells were imaged with an inverted optical microscope (IS71, Olympus).
(§2) Clinical strains express various phenotypes, particularly, in drug susceptibility. […] Rifampicin, isoniazid, streptomycin, and ethambutol were used as test drugs. For the 131 strains, the highest concentration was 1.3×10^9.

clinical strain 131 = test: as above
Procedure: as §1, §2

clinical strain CMS = test: as above
Procedure: as §1, §2

clinical strain CYD = test: as above
Procedure: as §1, §2

clinical strain KHS = test: as above
Procedure: as §1, §2

clinical strain MSH = test: as above
Procedure: as §1, §2

[1] = inoculum 10^3/mL, DAC, unit inferred
[2] = inoculum 10^4/mL, DAC, unit inferred
[3] = inoculum 10^5/mL, DAC, unit inferred
[4] = inoculum 10^6/mL, MAC2, unit inferred
[5] = inoculum 10^7/mL, MAC2, unit inferred

| SMILES | susceptibility determined from the MIC data and the critical concentrations (M. tuberculosis H37Rv) | MIC (M. tuberculosis H37Rv) | susceptibility determined from the MIC data and the critical concentrations (MDR-TB clinical strain) | MIC (MDR-TB clinical strain) | susceptibility determined from the MIC data and the critical concentrations (XDR-TB clinical strain) | MIC (XDR-TB clinical strain) | MIC (DAC) (standard strain H37Rv; [1]) | MIC (DAC) (standard strain H37Rv; [2]) | MIC (DAC) (standard strain H37Rv; [3]) | MIC (DAC) (standard strain H37Rv; [4]) | MIC (DAC) (standard strain H37Rv; [5]) | MIC (DAC) (clinical strain 1088; [1]) | MIC (DAC) (clinical strain 1088; [2]) | MIC (DAC) (clinical strain 1088; [3]) | MIC (DAC) (clinical strain 1088; [4]) | MIC (DAC) (clinical strain 1088; [5]) | MIC (DAC) (clinical strain 131; [1]) | MIC (DAC) (clinical strain 131; [2]) | MIC (DAC) (clinical strain 131; [3]) | MIC (DAC) (clinical strain 131; [4]) | further results |
| --- | --- | --- | --- | --- | --- | --- | --- | --- | --- | --- | --- | --- | --- | --- | --- | --- | --- | --- | --- | --- | --- |
| CC[C@@H](CO)NCCN[C@@H](CC)CO [EMB, ethambutol] | S | 5 µg/mL (≈ 24.5 µM) | R | > 10 µg/mL | R | 10 µg/mL (≈ 48.9 µM) | 2.5 µg/mL (≈ 12.2 µM) | 1.25 µg/mL (≈ 6.12 µM) | 1.25 µg/mL (≈ 6.12 µM) | 2.5 µg/mL (≈ 12.2 µM) | 2.5 µg/mL (≈ 12.2 µM) | 10 µg/mL (≈ 48.9 µM) | 10 µg/mL (≈ 48.9 µM) | 10 µg/mL (≈ 48.9 µM) | ≥ 10 µg/mL | ≥ 10 µg/mL | > 10 µg/mL | > 10 µg/mL | > 10 µg/mL | > 10 µg/mL | susceptibility of the strain (in words) (M. tuberculosis H37Rv): sensitive; MIC (DAC) (clinical strain 131; [5]): > 10 µg/mL; MIC (DAC) (clinical strain CMS; [2]): 1.25 µg/mL (≈ 6.12 µM); MIC (DAC) (clinical strain CMS; [3]): 1.25 µg/mL (≈ 6.12 µM); MIC (DAC) (clinical strain CMS; [4]): 2.5 µg/mL (≈ 12.2 µM); MIC (DAC) (clinical strain CMS; [5]): 2.5 µg/mL (≈ 12.2 µM); MIC (DAC) (clinical strain CYD; [2]): 2.5 µg/mL (≈ 12.2 µM); MIC (DAC) (clinical strain CYD; [3]): 2.5 µg/mL (≈ 12.2 µM); MIC (DAC) (clinical strain CYD; [4]): 2.5 µg/mL (≈ 12.2 µM); MIC (DAC) (clinical strain CYD; [5]): 5 µg/mL (≈ 24.5 µM); MIC (DAC) (clinical strain KHS; [2]): 2.5 µg/mL (≈ 12.2 µM); MIC (DAC) (clinical strain KHS; [3]): 1.25 µg/mL (≈ 6.12 µM); MIC (DAC) (clinical strain KHS; [4]): 2.5 µg/mL (≈ 12.2 µM); MIC (DAC) (clinical strain KHS; [5]): 2.5 µg/mL (≈ 12.2 µM); MIC (DAC) (clinical strain MSH; [2]): 1.25 µg/mL (≈ 6.12 µM); MIC (DAC) (clinical strain MSH; [3]): 2.5 µg/mL (≈ 12.2 µM); MIC (DAC) (clinical strain MSH; [4]): 2.5 µg/mL (≈ 12.2 µM); MIC (DAC) (clinical strain MSH; [5]): 1.25 µg/mL (≈ 6.12 µM) |
| NNC(=O)c1ccncc1 [INH, isoniazid] | S | 0.05 µg/mL (≈ 0.365 µM) | R | > 0.2 µg/mL | R | > 0.2 µg/mL | 0.05 µg/mL (≈ 0.365 µM) | 0.05 µg/mL (≈ 0.365 µM) | 0.05 µg/mL (≈ 0.365 µM) | 0.05 µg/mL (≈ 0.365 µM) | 0.05 µg/mL (≈ 0.365 µM) | ≥ 0.2 µg/mL | 0.2 µg/mL (≈ 1.46 µM) | 0.2 µg/mL (≈ 1.46 µM) | ≥ 0.2 µg/mL | ≥ 0.2 µg/mL | 0.2 µg/mL (≈ 1.46 µM) | > 0.2 µg/mL | > 0.2 µg/mL | > 0.2 µg/mL | susceptibility of the strain (in words) (M. tuberculosis H37Rv): sensitive; MIC (DAC) (clinical strain 131; [5]): > 0.2 µg/mL; MIC (DAC) (clinical strain CMS; [2]): 0.05 µg/mL (≈ 0.365 µM); MIC (DAC) (clinical strain CMS; [3]): 0.025 µg/mL (≈ 0.182 µM); MIC (DAC) (clinical strain CMS; [4]): 0.025 µg/mL (≈ 0.182 µM); MIC (DAC) (clinical strain CMS; [5]): 0.05 µg/mL (≈ 0.365 µM); MIC (DAC) (clinical strain CYD; [2]): 0.05 µg/mL (≈ 0.365 µM); MIC (DAC) (clinical strain CYD; [3]): 0.025 µg/mL (≈ 0.182 µM); MIC (DAC) (clinical strain CYD; [4]): 0.025 µg/mL (≈ 0.182 µM); MIC (DAC) (clinical strain CYD; [5]): 0.025 µg/mL (≈ 0.182 µM); MIC (DAC) (clinical strain KHS; [2]): 0.05 µg/mL (≈ 0.365 µM); MIC (DAC) (clinical strain KHS; [3]): 0.025 µg/mL (≈ 0.182 µM); MIC (DAC) (clinical strain KHS; [4]): 0.025 µg/mL (≈ 0.182 µM); MIC (DAC) (clinical strain KHS; [5]): 0.025 µg/mL (≈ 0.182 µM); MIC (DAC) (clinical strain MSH; [2]): 0.025 µg/mL (≈ 0.182 µM); MIC (DAC) (clinical strain MSH; [3]): 0.025 µg/mL (≈ 0.182 µM); MIC (DAC) (clinical strain MSH; [4]): 0.025 µg/mL (≈ 0.182 µM); MIC (DAC) (clinical strain MSH; [5]): 0.025 µg/mL (≈ 0.182 µM) |
| CO[C@H]1/C=C/O[C@@]2(C)Oc3c(C)c(O)c4c(O)c(c(/C=N/N5CCN(C)CC5)c(O)c4c3C2=O)NC(=O)/C(C)=C\C=C\[C@H](C)[C@H](O)[C@@H](C)[C@@H](O)[C@@H](C)[C@H](OC(C)=O)[C@@H]1C [RFP, rifampicin] | S | 0.25 µg/mL (≈ 0.304 µM) | R | > 2 µg/mL | R | > 2 µg/mL | 0.5 µg/mL (≈ 0.608 µM) | 0.5 µg/mL (≈ 0.608 µM) | 0.5 µg/mL (≈ 0.608 µM) | 0.5 µg/mL (≈ 0.608 µM) | 0.5 µg/mL (≈ 0.608 µM) | ≥ 2 µg/mL | ≥ 2 µg/mL | ≥ 2 µg/mL | ≥ 2 µg/mL | ≥ 2 µg/mL | > 2 µg/mL | > 2 µg/mL | > 2 µg/mL | > 2 µg/mL | MIC (DAC) (clinical strain 131; [5]): > 2 µg/mL; MIC (DAC) (clinical strain CMS; [2]): 0.25 µg/mL (≈ 0.304 µM); MIC (DAC) (clinical strain CMS; [3]): 0.25 µg/mL (≈ 0.304 µM); MIC (DAC) (clinical strain CMS; [4]): 0.5 µg/mL (≈ 0.608 µM); MIC (DAC) (clinical strain CMS; [5]): 0.5 µg/mL (≈ 0.608 µM); MIC (DAC) (clinical strain CYD; [2]): 0.25 µg/mL (≈ 0.304 µM); MIC (DAC) (clinical strain CYD; [3]): 0.25 µg/mL (≈ 0.304 µM); MIC (DAC) (clinical strain CYD; [4]): 0.25 µg/mL (≈ 0.304 µM); MIC (DAC) (clinical strain CYD; [5]): 0.5 µg/mL (≈ 0.608 µM); MIC (DAC) (clinical strain KHS; [2]): 0.25 µg/mL (≈ 0.304 µM); MIC (DAC) (clinical strain KHS; [3]): 0.25 µg/mL (≈ 0.304 µM); MIC (DAC) (clinical strain KHS; [4]): 0.25 µg/mL (≈ 0.304 µM); MIC (DAC) (clinical strain KHS; [5]): 0.5 µg/mL (≈ 0.608 µM); MIC (DAC) (clinical strain MSH; [2]): 0.25 µg/mL (≈ 0.304 µM); MIC (DAC) (clinical strain MSH; [3]): 0.25 µg/mL (≈ 0.304 µM); MIC (DAC) (clinical strain MSH; [4]): 0.25 µg/mL (≈ 0.304 µM); MIC (DAC) (clinical strain MSH; [5]): 0.5 µg/mL (≈ 0.608 µM) |
| [H]/N=C(/N)N[C@H]1[C@H](O)[C@@H](O)[C@H](O[C@@H]2O[C@@H](C)[C@](O)(C=O)[C@H]2O[C@@H]2O[C@@H](CO)[C@H](O)[C@@H](O)[C@@H]2NC)[C@@H](N/C(N)=N\[H])[C@@H]1O [SM, streptomycin] | R | 2 µg/mL (≈ 3.44 µM) | R | > 4 µg/mL | R | > 4 µg/mL | 2 µg/mL (≈ 3.44 µM) | 2 µg/mL (≈ 3.44 µM) | 2 µg/mL (≈ 3.44 µM) | 2 µg/mL (≈ 3.44 µM) | > 2 µg/mL | ≥ 4 µg/mL | ≥ 4 µg/mL | ≥ 4 µg/mL | ≥ 4 µg/mL | ≥ 4 µg/mL | > 4 µg/mL | > 4 µg/mL | > 4 µg/mL | > 4 µg/mL | susceptibility of the strain (in words) (M. tuberculosis H37Rv): sensitive; MIC (DAC) (clinical strain 131; [5]): > 4 µg/mL; MIC (DAC) (clinical strain CMS; [2]): 0.5 µg/mL (≈ 0.86 µM); MIC (DAC) (clinical strain CMS; [3]): 0.5 µg/mL (≈ 0.86 µM); MIC (DAC) (clinical strain CMS; [4]): 1 µg/mL (≈ 1.72 µM); MIC (DAC) (clinical strain CMS; [5]): 1 µg/mL (≈ 1.72 µM); MIC (DAC) (clinical strain CYD; [2]): 0.5 µg/mL (≈ 0.86 µM); MIC (DAC) (clinical strain CYD; [3]): 0.25 µg/mL (≈ 0.43 µM); MIC (DAC) (clinical strain CYD; [4]): 0.5 µg/mL (≈ 0.86 µM); MIC (DAC) (clinical strain CYD; [5]): 1 µg/mL (≈ 1.72 µM); MIC (DAC) (clinical strain KHS; [2]): 0.5 µg/mL (≈ 0.86 µM); MIC (DAC) (clinical strain KHS; [3]): 0.25 µg/mL (≈ 0.43 µM); MIC (DAC) (clinical strain KHS; [4]): 0.5 µg/mL (≈ 0.86 µM); MIC (DAC) (clinical strain KHS; [5]): 1 µg/mL (≈ 1.72 µM); MIC (DAC) (clinical strain MSH; [2]): 0.25 µg/mL (≈ 0.43 µM); MIC (DAC) (clinical strain MSH; [3]): 0.25 µg/mL (≈ 0.43 µM); MIC (DAC) (clinical strain MSH; [4]): 1 µg/mL (≈ 1.72 µM); MIC (DAC) (clinical strain MSH; [5]): 0.5 µg/mL (≈ 0.86 µM) |
